Key:
[1] = biological target: T1, hα2A receptor (Homo sapiens, UniProt P08913); assay: Radioligand binding experiment for α2A-adrenoceptor ([3H]raulwolscine, CHO cell membranes); conditions: [3H]raulwolscine binding; for IC50: read-out: h-α2A pIC50 (converted)
T1 construct: expressed in transfected cells; host or cells: CHO cells, stably transfected; membrane preparation
T1 sequence (P08913 1-465): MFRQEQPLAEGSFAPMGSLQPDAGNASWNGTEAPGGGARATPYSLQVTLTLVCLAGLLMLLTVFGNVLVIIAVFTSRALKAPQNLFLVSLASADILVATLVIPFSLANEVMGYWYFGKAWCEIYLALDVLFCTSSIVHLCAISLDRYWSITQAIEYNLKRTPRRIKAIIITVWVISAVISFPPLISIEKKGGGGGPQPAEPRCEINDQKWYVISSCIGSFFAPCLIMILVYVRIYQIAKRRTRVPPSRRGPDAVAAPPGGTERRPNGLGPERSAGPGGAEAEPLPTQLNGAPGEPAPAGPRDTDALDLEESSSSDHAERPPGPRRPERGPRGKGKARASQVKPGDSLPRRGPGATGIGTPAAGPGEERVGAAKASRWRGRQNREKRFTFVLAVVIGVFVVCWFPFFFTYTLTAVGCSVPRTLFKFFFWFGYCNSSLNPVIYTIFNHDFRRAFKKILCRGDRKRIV
Experimental: (§1) The interaction of a compound of Formula (I) with α2-adrenoceptor receptors was assessed in in vitro radioligand binding experiments. In general, a low concentration of a radioligand with a high binding affinity for a particular receptor or transporter is incubated with a sample of a tissue preparation enriched in a particular receptor or transporter or with a preparation of cells expressing cloned human receptors in a buffered medium. During the incubation, the radioligand binds to the receptor or transporter. When equilibrium of binding is reached, the receptor bound radioactivity is separated from the non-bound radioactivity, and the receptor- or transporter-bound activity is counted. The interaction of the test compounds with the receptor is assessed in competition binding experiments. Various concentrations of the test compound are added to the incubation mixture containing the receptor- or transporter preparation and the radioligand. The test compound in proportion to its binding affinity and its concentration inhibits binding of the radioligand. The radioligand used for hα2A and hα2C receptor binding was [^3H]-raulwolscine.
(§2) CHO cells, stabile transfected with human adrenergic-α2A and α2C receptor cDNA, were cultured in Dulbecco's Modified Eagle's Medium (DMEM)/Nutrient mixture Ham's F12 (ratio 1:1)(Gibco, Gent-Belgium) supplemented with 10% heat inactivated fetal calf serum (Life Technologies, Merelbeke-Belgium) and antibiotics (100 IU/ml penicillin G, 100 μg/ml streptomycin sulphate, 110 μg/ml pyruvic acid and 100 μg/ml L-glutamine). One day before collection, cells were induced with 5 mM sodiumbutyrate. Upon 80-90% of confluence, cells were scraped in phosphate buffered saline without Ca^2+ and Mg^2+ and collected by centrifugation at 1500×g for 10 minutes. The cells were homogenised in Tris-HCl 50 mM using an Ultraturrax homogenizer and centrifuged for 10 minutes at 23,500×g. The pellet was washed once by resuspension and rehomogenization and the final pellet was resuspended in Tris-HCl, divided in 1 ml aliquots and stored at −70° C.
(§3) Membranes were thawed and re-homogenized in incubation buffer (glycylglycine 25 mM, pH 8.0). […] Filters were rinsed extensively with ice-cold rinsing buffer (Tris-HCl 50 mM pH 7.4). Filter-bound radioactivity was determined by scintillation counting in a Topcount (Packard, Meriden, Conn.) and results were expressed as counts per minute (cpm). Non-specific binding was determined in the presence of 1 μM oxymetazoline for the hα2A receptor and 1 μM spiroxatrine for hα2C receptor.
(§4) Data from assays in the presence of compound were calculated as a percentage of total binding measured in the absence of test compound. Inhibition curves, plotting percent of total binding versus the log value of the concentration of the test compound, were automatically generated, and sigmoidal inhibition curves were fitted using non-linear regression. The pIC50 values of test compounds were derived from individual curves.

[2] = biological target: T2, hα2C receptor (Homo sapiens, UniProt P18825); assay: Radioligand binding experiment for α2C-adrenoceptor ([3H]raulwolscine, CHO cell membranes); conditions: [3H]raulwolscine binding; for IC50: read-out: h-α2C pIC50 (converted)
T2 construct: expressed in transfected cells; host or cells: CHO cells, stably transfected; membrane preparation
T2 sequence (P18825 1-462): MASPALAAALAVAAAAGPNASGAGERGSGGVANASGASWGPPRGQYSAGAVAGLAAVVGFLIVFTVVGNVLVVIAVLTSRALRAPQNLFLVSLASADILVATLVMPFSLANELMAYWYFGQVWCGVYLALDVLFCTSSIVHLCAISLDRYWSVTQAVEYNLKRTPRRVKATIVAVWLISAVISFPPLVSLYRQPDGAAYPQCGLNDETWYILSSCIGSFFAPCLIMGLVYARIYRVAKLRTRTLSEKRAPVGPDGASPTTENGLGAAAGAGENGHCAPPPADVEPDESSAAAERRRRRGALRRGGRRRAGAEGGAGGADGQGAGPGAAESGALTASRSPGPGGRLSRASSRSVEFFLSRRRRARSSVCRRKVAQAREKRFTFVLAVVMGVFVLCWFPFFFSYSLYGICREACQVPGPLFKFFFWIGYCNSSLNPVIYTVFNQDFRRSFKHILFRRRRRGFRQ
Experimental: as §1, §2, §3, §4

[3] = biological target: T3, 5HT-Transporter (Homo sapiens, UniProt P31645); assay: Binding experiment for the 5HT-transporter ([3H]paroxetine, human platelet membranes); conditions: [3H]paroxetine 0.5 nM; for IC50: read-out: h-5HTT pIC50 (converted)
T3 construct: Human platelet membranes (Oceanix Biosciences Corporation, Hanover, Md., USA) were thawed; tissue Oceanix Biosciences Corporation, Hanover, Md., USA; host or cells: human platelet membranes
Experimental: as §1
Human platelet membranes (Oceanix Biosciences Corporation, Hanover, Md., USA) were thawed, diluted in buffer (Tris-HCl 50 mM, 120 mM NaCl and 5 mM KCl) and quickly (max 3 s) homogenised with an Ultraturrax homogenizer. […] Incubation was stopped by rapid filtration of the incubation mixture over GF/B filters, pre-wetted with 0.1% polyethyleneamine, using a Filtermate196 harvester (Packard, Meriden, Conn.). Filters were rinsed extensively with ice-cold buffer and radioactivity on the filters was counted in a Topcount liquid scintillation counter (Packard, Meriden, Conn.). Data were expressed as cpm. Imipramine (at 1 μM final concentration) was used to determine the non-specific binding.
as §4

T3 sequence (P31645 whole entry): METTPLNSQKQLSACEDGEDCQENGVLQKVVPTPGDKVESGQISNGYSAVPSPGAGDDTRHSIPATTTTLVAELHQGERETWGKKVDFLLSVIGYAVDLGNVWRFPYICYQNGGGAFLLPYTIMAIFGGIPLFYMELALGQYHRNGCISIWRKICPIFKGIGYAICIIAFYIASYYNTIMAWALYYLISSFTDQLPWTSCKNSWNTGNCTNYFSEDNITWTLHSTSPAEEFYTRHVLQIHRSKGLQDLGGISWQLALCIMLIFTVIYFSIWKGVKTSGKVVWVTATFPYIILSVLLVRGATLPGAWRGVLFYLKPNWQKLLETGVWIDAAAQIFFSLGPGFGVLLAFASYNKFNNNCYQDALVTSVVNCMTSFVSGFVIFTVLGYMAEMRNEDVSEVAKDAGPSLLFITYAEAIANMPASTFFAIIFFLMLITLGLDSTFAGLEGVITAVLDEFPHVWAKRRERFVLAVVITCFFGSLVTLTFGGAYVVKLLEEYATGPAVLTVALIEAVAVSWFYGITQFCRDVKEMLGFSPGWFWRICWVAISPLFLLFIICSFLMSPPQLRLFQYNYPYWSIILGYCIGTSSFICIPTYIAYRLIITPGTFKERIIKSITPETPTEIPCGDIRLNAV

Structure (SMILES) | IC50 [1] [nM] | IC50 [2] [nM] | IC50 [3] [nM] | h-α2A pIC50 [1] | h-α2C pIC50 [2] | h-5HTT pIC50 [3]
C/C(=C\c1ccccc1)CN1CCC(Nc2nccn(-c3ccc(C(=O)N4CCN(c5ncccn5)CC4)cc3)c2=O)CC1 [2-34] | 100 | 5.01 | 631 |  |  | 
C/C(=C\c1ccccc1)CN1CCC(Nc2nccn(CCCN(c3ccccc3)S(=O)(=O)c3ccccc3)c2=O)CC1 [1-168] | 158 | 10 | 200 |  |  | 
C/C(=C\c1ccccc1)CN1CCC(Nc2nccn(CCCN(C)C(=O)c3ccc(F)cc3)c2=O)CC1 [1-79] | 2000 | 39.8 | > 10000 |  |  | 
COc1ccc(CNC(=O)Cn2ccnc(NC3CCN(C/C(C)=C/c4ccccc4)CC3)c2=O)cc1 [1-64] | 251 | 12.6 | 1580 |  |  | 
C/C(=C\c1ccccc1)CN1CCC(Nc2nccn(CC(=O)NCCCN3CCCC3=O)c2=O)CC1 [1-132] | 316 | 12.6 | 2510 |  |  | 
C/C(=C\c1ccccc1)CN1CCN(c2ncc[nH]c2=O)CC1 [14-1] | 158 | 39.8 | 3980 |  |  | 
C/C(=C\c1ccccc1)CN1CCC(Nc2nccn(-c3ccc(CN4CCCCC4)cc3)c2=O)CC1 [2-10] | 31.6 | 1.58 | 251 |  |  | 
CCOC(=O)N1CCC(NCc2ccc(-n3ccnc(NC4CCN(C/C(C)=C/c5ccccc5)CC4)c3=O)cc2)CC1 [1-128] |  |  |  | 7.0 | 7.9 | 5.9
C/C(=C\c1ccccc1)CN1CCC(Nc2nccn(CC(=O)NCC(c3ccccc3)c3ccccc3)c2=O)CC1 [1-68] | 158 | 12.6 | 794 |  |  | 
C/C(=C\c1ccccc1)CN1CCC(Nc2nccn(CC(=O)C(C)(C)C)c2=O)CC1 [7-9] | 79.4 | 7.94 | 5010 |  |  | 
C/C(=C\c1ccccc1)CN1CCC(Nc2nccn(-c3ccc(C(=O)O)cc3)c2=O)CC1 [3-4] | 631 | 79.4 | > 10000 |  |  | 
C/C(=C\c1ccccc1)CN1CCC(Nc2nccn(Cc3ccc(CNS(=O)(=O)c4ccc(C#N)cc4)cc3)c2=O)CC1 [1-161] | 100 | 25.1 | 501 |  |  | 
C/C(=C\c1ccccc1)CN1CCC(Nc2nccn(-c3cccc(CN(C)CCN(C)C)c3)c2=O)CC1 [1-109] |  |  |  | 8.2 | 8.6 | 6.5
C/C(=C\c1ccccc1)CN1CCC(Nc2nccn(CCCN(C)Cc3ccccc3)c2=O)CC1 [1-51] | 50.1 | 1 | 1000 |  |  | 
C/C(=C\c1ccccc1)CN1CCN(c2nccn(Cc3ccc(Cl)s3)c2=O)CC1 [13-2] | 79.4 | 39.8 | 3980 |  |  | 
CCCC(=O)NCc1ccc(Cn2ccnc(NC3CCN(C/C(C)=C/c4ccccc4)CC3)c2=O)cc1 [1-31] | 200 | 50.1 | 794 |  |  | 
C/C(=C\c1ccccc1)CN1CCC(Nc2nccn(CCCNC(=O)Nc3ccccc3)c2=O)CC1 [1-119] | 158 | 5.01 | 158 |  |  | 

Reference: patent US20090111801A1, “SUBSTITUTED PYRAZINONE DERIVATIVES FOR USE AS A MEDICINE” (Janssen Pharmaceutica N.V., priority 2006, published 2009)
